Patent US12016335B2, “Stabilized low-concentration metsulfuron-methyl liquid composition” (FMC CORPORATION, priority 2013, dated 2024)

Assay: Chemical stability of metsulfuron-methyl and thifensulfuron-methyl during aging of compositions at 40° C. (HPLC)
Assay type: physicochemical
Description: When prepared, the compositions were analyzed by HPLC for metsulfuron-methyl and thifensulfuron-methyl content. The stability of metsulfuron-methyl and thifensulfuron-methyl in the compositions prepared was then determined by aging samples in ovens at 40° C. for 4 and 8 weeks. Storage at 40° C. at 8 weeks simulates two-year storage at ambient temperature. Control samples were stored in a freezer at −6° C. […] At the end of the allotted times, samples were removed from the ovens and analyzed by HPLC for metsulfuron-methyl or thifensulfuron-methyl content. The relative chemical stability was calculated by dividing the assay of the oven-aged sample by that of the control sample analyzed on the same day.

## COC(=O)c1sccc1S(=O)(=O)NC(=O)Nc1nc(C)nc(OC)n1 [thifensulfuron-methyl, methyl 3-[[[[(4-methoxy-6-methyl-1,3,5-triazin-2-yl)amino]carbonyl]amino]-sulfonyl]-2-thiophenecarboxylate]
  stability of the thifensulfuron-methyl component itself: excellent stability
